Where no end group is shown, it is not given here.
Tested on: vTreg53 Treg cells and VAT immunocytes
Experiment: Immunocyte composition of spleen and VAT in HFD-fed mice after vTreg53 Treg transfer and immunization
Format: in vivo, mouse
Text: Figure 6. Immunization with Fat1562 expands transferred vTreg53 Treg cells and suppresses HFD-induced VAT inflammation. (A) Scheme of the transfer and immunization protocol. (B) Frequencies of CD45.2^+ cells in Treg cells (n ≥ 7). (C) Frequencies of clonotype^+ cells in transferred CD45.2^+ Treg cells (n ≥ 7). (D) Number of clonotype^+ CD45.2^+ Treg cells in the spleen (n ≥ 7). (E) Number of clonotype^+ CD45.2^+ Treg cells in the VAT (n ≥ 7). (F) Number of total Treg cells in the spleen (n ≥ 7). (G) Number of total Treg cells in VAT (n ≥ 7). (H) Numbers of eosinophils and CD11c^hi inflammatory macrophages in VAT (n ≥ 7). Data are mean ± SD. Data shown are representative of at least two independent experiments. Figure 6—figure supplement 1. Gating strategy. Gating strategy used for detection of VAT Treg cells (top) and, eosinophils or macrophage cells (bottom) by flow cytometry. [drawing 6] TEXT PRINTED IN THE PICTURE: (B) adjuvant: Spl: 0.3 (Gated on Tregs); VAT: 4 (Gated on Tregs) | (B) adjuvant/ Fat1562: Spl: 1.2 (Gated on Tregs); VAT: 53.4 (Gated on Tregs) | (C) adjuvant: Spl: 62.3 (Gated on CD45.2^+ Tregs); VAT: 94.1 (Gated on CD45.2^+ Tregs) | (C) adjuvant/ Fat1562: Spl: 94.1 (Gated on CD45.2^+ Tregs); VAT: 97.8 (Gated on CD45.2^+ Tregs) | (H) adjuvant: 9.3 (Gated on CD45.1^+); 46.3 (Gated on CD45.1^+); 41.3 (Gated on F4/80^+) | (H) adjuvant/ Fat1562: 14.5 (Gated on CD45.1^+); 39.6 (Gated on CD45.1^+); 22.6 (Gated on F4/80^+) DOUBTS OF THE COPYIST ABOUT THIS PICTURE: All values are gate numbers printed inside flow cytometry plots; no measure or unit is printed beside them, so it is uncertain whether they count as results for a substance / 'adjuvant' is the control treatment and 'adjuvant/Fat1562' the test treatment; these are treatment groups, not single compounds / Panel B, adjuvant, VAT: printed as 4, a decimal may be hidden
Mice were asphyxiated with CO2. Epididymal VAT was excised, minced and digested for 20 min with 1.5 mg/ml collagenase type II (Sigma) in Dulbecco’s Modified Eagle’s Medium (DMEM) supplemented with 2% fetal calf serum (FCS) in a 37°C water bath with shaking. The digested materials were filtered through a sieve and then a 40 µm nylon cell strainer. The stromal vascular fraction was collected after centrifugation at 450 g for 10 min. For surface markers, cells were stained with anti-CD45.1 (A20), -CD45.2 (104), -CD3 (17A2), -CD4 (GK1.5), -TCR Vα2 (B20.1), -CD44 (IM7), -CD62L (MEL-14), -CD45 (30-F11), -CD11b (M1/70), -CD11c (N418), -F4/80 (BM8) mAbs (all from Biolegend), and anti-TCR Vβ4 (KT4), anti-Siglec-F (E50-2440) mAbs (both from BD Biosciences), as detailed in experiment descriptions. Foxp3 staining was performed using the Foxp3/Transcription Factor Staining Buffer Set and anti-Foxp3 (FJK-16s) mAb (both from eBioscience). Cells were acquired with an LSRII flow cytometer (BD Biosciences), an Accuri (BD Biosciences) or Cytoflex (Beckman Coulter). Propidium Iodide was used to distinguish live from dead cells. Assays were performed in biological duplicates or triplicates as described in the figure legends. Data were analyzed using FlowJo.
To assess early Treg proliferation following peptide stimulation in vivo, 0.4 million Treg cells were sorted from pooled Spl and LNs of 6-8wk-old male CD45.2^+ Tg^+ Foxp3-GFP^KI/y mice by Moflo, labeled by the CellTrace Violet dye (ThermoFisher Scientific), and were i.v.-injected into 6-8wk old male B6.CD45.1^+ mice. The next day, the recipient mice were injected with 200 µg peptides emulsified in CFA (CFA/peptides) s.c. on the lower back. Proliferation of clonotype^+ Tregs in the spleen was determined three days later. To examine the expansion of VAT-Treg cells by peptide immunization, we sorted 0.4 million Treg cells from pooled Spl/LNs of 6-8wk-old male CD45.2^+ Tg^+ Foxp3-GFP^KI/y mice and transferred them i.v. into 6-8wk old male B6.CD45.1^+ mice. […]

Sequence: TMYKNPRPMAATG [Fat1562]
- VAT inflammation: reduced VAT inflammation
- expansion of adoptively transferred vTreg53 cells: significant expansion
- clonotype^+ TCR-tg Treg cells, share of entire VAT-Treg pool (VAT, n ≥ 7): almost half
- frequency of CD11c^hi pro-inflammatory macrophages in VAT (VAT, n ≥ 7): reducing the frequency of CD11c^hi pro-inflammatory macrophages
- proportion of eosinophils in VAT (VAT, n ≥ 7): significantly increased the proportion of eosinophils
- total number of VAT Treg cells (VAT, n ≥ 7): significantly elevated
- donor-derived cells, share of total Treg pool in spleen (spleen, immunization with Fat1562): less than 2%
- total number of splenic Treg cells (spleen, n ≥ 7): did not show a significant increase
